Assay results published in patent US20020091086A1, “Peptides that block viral infectivity and methods of use thereof” (priority 1999, published 2002).
Peptide text beside a SMILES is read from it.

What was measured:
[1] = system: HIV-1 SF-2 virus; test: electron microscopy of HIV-1 particles from infected HUT78 cells; format: cell-based; conditions: 1 μM or 10 μM added 3, 5 or 7 days post infection; cells fixed day 14
Method: In this set of experiments, HUT78 cells were infected with HIV-1 SF-2 virus at 300TCID50 for 1 hr at 37° C. Subsequently, the infected cells were washed and pelleted 3 times, as described in Example 2. Thereafter, the cells were resuspended in RPMI culture medium supplemented with 10% FBS, antibiotics (100 u/ml) and polybrene (3.2 μg/ml). GPG-NH2 was then added into the cell cultures 3, 5 or 7 days post infection at concentration of 1 μM or 10 μM. A control sample was administered 0.5μM Ritonavir (a protease inhibitor).
The cells were cultured until day 14, at which point, the cells were fixed in 2.5% glutaraldehyde by conventional means. The fixed cells were then postfixed in 1% OSO4 and were dehydrated, embedded with epoxy resins, and the blocks were allowed to polymerize. Epon sections of virus infected cells were made approximately 60-80 nm thin in order to accommodate the width of the nucleocapsid. The sections were mounted to grids stained with 1.0% uranyl acetate and were analyzed in a Zeiss CEM 902 microscope at an accelerating voltage of 80 kV. The microscope was equipped with a spectrometer to improve image quality and a liquid nitrogen cooling trap was used to reduce beam damage. The grids having sections of control and GPG-NH2 incubated cells were examined in several blind studies.

[2] = system: HIV-1 SF-2 virus; test: combination of GPG-NH2 with AZT or Ritonavir in HUT78 cells, p24; format: cell-based
[3] = system: HSV-1; format: cell-based; conditions: concentrations up to 1 mM
[4] = system: influenza; test: inhibition of influenza virus; format: cell-based
[5] = system: human mononuclear cells; test: in vitro proliferative response of human mononuclear cells; format: cell-based; conditions: 20 μM
Method: Next, the toxicity to normal human lymphomonocytic cells (PBMC) was examined. […] The effect of GPG-NH2 on in vitro proliferative response of human mononuclear cells was also tested.

[6] = system: HUT78; test: cytotoxicity, trypan-blue dye exclusion and cell counting; conditions: 40 mM, 3 days of culture
Method: (§1) The in vitro 50% cytotoxic concentrations (CC50) of various cell lines was also assessed. Accordingly, different concentrations of GPG-NH2, up to 40 mM, was supplemented into the medium culture of T-cell lines HUT78, H9, CEM-SS, MT-2 and (non) induced ACH-2, as well as, the macrophage derived cell lines […], THP-1 and (non) induced U-1 cells. After 3 days of incubation, the number of cells were counted.

[7] = system: Jurkat-tat III; test: as above; conditions: 40 mM, 3 days of culture
Method: as §1

[8] = system: MT-2; test: as above; conditions: 40 mM, 3 days of culture
Method: as §1

[9] = system: CEM-SS; test: cytotoxicity, cell counting; conditions: 40 mM, 3 days
Method: as §1

[10] = system: H9; test: cytotoxicity, cell counting; conditions: 40 mM, 3 days
Method: as §1

[11] = system: THP-1; test: cytotoxicity, cell counting; conditions: 40 mM, 3 days
Method: as §1

[12] = system: various cell lines; test: ratio of CC50/IC50 in vitro; format: cell-based
Method: as §1

[13] = system: SF162 strain of HIV-1; test: antiviral activity of plasma of rats fed GPG-NH2 on infected PBMC, p24; format: cell-based; conditions: rat plasma diluted 1/5
Method: For the assessment of biologically active GPG-NH2 in the plasma of animals fed the small peptide, plasma samples were prepared from blood obtained from the rats of the four week toxicology study the day after the last feeding. The plasma samples were diluted ⅕ in RPMI medium and were adminstered to PBMC infected with the SF162 strain of HIV-1, as described above. Viral infectivity was then monitored at seven, eleven, and fourteen days post infection by detecting the amount of p24 in the supernatent using a commercially available detection assay. (Abbott). […] In some cases, the administration of as little as 10 μM GPG-NH2 provided a sufficient concentration of small peptide in the plasma to enable the inhibition of HIV-1 replication. The percent reduction was calculated as in Table 6. The results from these experiments established that small peptides described herein can be maintained at concentrations in the body of an animal that are effective at inhibiting HIV replication.

[14] = Exp. 1, day 7, Feeding GPG 10 (mg/ml)
[15] = Exp. 1, day 7, Feeding GPG 30 (mg/ml)
[16] = Exp. 1, day 7, Feeding GPG 100 (mg/ml)
[17] = Exp. 1, day 14, Feeding GPG 10 (mg/ml)
[18] = Exp. 1, day 14, Feeding GPG 30 (mg/ml)
[19] = Exp. 1, day 14, Feeding GPG 100 (mg/ml)
[20] = Exp. 2, day 7, Feeding GPG 10 (mg/ml)
[21] = Exp. 2, day 7, Feeding GPG 30 (mg/ml)
[22] = Exp. 2, day 7, Feeding GPG 100 (mg/ml)
[23] = Exp. 2, day 14, Feeding GPG 10 (mg/ml)
[24] = Exp. 2, day 14, Feeding GPG 30 (mg/ml)
[25] = Exp. 2, day 14, Feeding GPG 100 (mg/ml)
[26] = Exp. 3, day 14, Feeding GPG 10 (mg/ml)
[27] = Exp. 3, day 14, Feeding GPG 30 (mg/ml)
[28] = Exp. 3, day 14, Feeding GPG 100 (mg/ml)
[29] = Exp. 3, day (number not given), Feeding GPG 10 (mg/ml)
[30] = Exp. 3, day (number not given), Feeding GPG 30 (mg/ml)
[31] = Exp. 3, day (number not given), Feeding GPG 100 (mg/ml)
[32] = Exp. 4, day 11, Feeding GPG 10 (mg/ml)
[33] = Exp. 4, day 11, Feeding GPG 30 (mg/ml)
[34] = Exp. 4, day 11, Feeding GPG 100 (mg/ml)
[35] = Exp. 5, day 7, Feeding GPG 10 (mg/ml)
[36] = Exp. 5, day 7, Feeding GPG 30 (mg/ml)
[37] = Exp. 5, day 7, Feeding GPG 100 (mg/ml)

`NCC(=O)N1CCC[C@H]1C(=O)NCC(N)=O` [GPG-NH2, glycyl-prolyl-glycine amide] (H-Gly-Pro-Gly-NH2) was tested, and the “viral nucleocapsid formation, electron microscopy” value [1] was “interrupted proper viral nucleocapsid formation”, the “effect on inhibition of HIV-1 replication in the presence of AZT” value ([2]; combination with AZT) was “synergistically” and the “antiviral effect together with Ritonavir” value ([2]; combination with Ritonavir) was “additive antiviral effect”. For the same compound, the HSV-1 replication [3] was “failed to reduce HSV-1 replication”, the “inhibition of influenza virus” value [4] was “failed inhibit either influenza or polio viruses” and the “anti-proliferative properties on T cells” value [5] was “marginal if any direct anti-proliferative properties”. The “function of accessory cells (monocytes and dendritic cells)” value [5] was “did not affect the function of accessory cells”, the “inhibition of cell growth” value [6] was ~40% and the “inhibition of cell growth” value [7] was ~40%. The “inhibition of cell growth” value [8] was ~40%, the “decrease in cell number” value [9] was “less than 20%” and the “decrease in cell number” value [10] was “less than 20%”. For the same compound, the “decrease in cell number” value [11] was “less than 20%”, the “ratio of CC50/IC50 in vitro” value [12] was > 10^4 and the “% reduction” value [13, 14] was 82.8%. The p24 [13, 14] was 93.3 pg/mL, the “% reduction” value [13, 15] was 95.6% and the p24 [13, 15] was 24.0 pg/mL. For the same compound, the “% reduction” value [13, 16] was 67.8%, the p24 [13, 16] was 174.7 pg/mL and the “% reduction” value [13, 17] was 92.8%. For the same compound, the p24 [13, 17] was 1636 pg/mL, the “% reduction” value [13, 18] was 95.9% and the p24 [13, 18] was 938 pg/mL. For the same compound, the “% reduction” value [13, 19] was 59.4%, the p24 [13, 19] was 9211 pg/mL and the “% reduction” value [13, 20] was 31.9%. The p24 [13, 20] was 219.2 pg/mL, the “% reduction” value [13, 21] was 39.6% and the p24 [13, 21] was 194.3 pg/mL. The “% reduction” value [13, 22] was 46.1%, the p24 [13, 22] was 173.5 pg/mL and the “% reduction” value [13, 23] was 0%. For the same compound, the p24 [13, 23] was 4760.8 pg/mL, the “% reduction” value [13, 24] was 12.3% and the p24 [13, 24] was 3574.4 pg/mL. For the same compound, the “% reduction” value [13, 25] was 45.9%, the p24 [13, 25] was 2203.7 pg/mL and the “% reduction” value [13, 26] was 11.6%. The p24 [13, 26] was 6700.6 pg/mL, the “% reduction” value [13, 27] was 9.1% and the p24 [13, 27] was 6893.0 pg/mL. For the same compound, the “% reduction” value [13, 28] was 0%, the p24 [13, 28] was 7578.4 pg/mL and the “% reduction” value [13, 29] was 0%. The p24 [13, 29] was 255.6 pg/mL, the “% reduction” value [13, 30] was 41.7% and the p24 [13, 30] was 107.3 pg/mL. For the same compound, the “% reduction” value [13, 31] was 47.3%, the p24 [13, 31] was 96.9 pg/mL and the “% reduction” value [13, 32] was 29.8%. For the same compound, the p24 [13, 32] was 170 pg/mL, the “% reduction” value [13, 33] was 0% and the p24 [13, 33] was 487.4 pg/mL. The “% reduction” value [13, 34] was 78.6%, the p24 [13, 34] was 51.7 pg/mL and the “% reduction” value [13, 35] was 73.9%. The p24 [13, 35] was 79.6 pg/mL, the “% reduction” value [13, 36] was 0% and the p24 [13, 36] was 439.3 pg/mL. For the same compound, the “% reduction” value [13, 37] was 80.3% and the p24 [13, 37] was 60 pg/mL.
